Literature values as cited in patent US9289440B2, “Intravenous formulation with water-soluble cocrystals of acetylsalicylic acid and theanine” (THEAPRIN PHARMACEUTICALS INC., priority 2009, dated 2016).
“Also recorded” adds a separate entry of the source.

Settings: FDA Reports 2006-2008, single patient reports

SMILES: CC(=O)Oc1ccccc1C(=O)O [Aspegic, lysine acetylsalicylate]
- side effect after drug was administered: cardio-respiratory arrest and ventricular fibrillation and died; also recorded: angina pectoris and recovered
